Results: article PMC8682738, “Constrained peptides mimic a viral suppressor of RNA silencing” (Nucleic Acids Research, 2021)
Positions of bridges follow the written chain, without caps; N, C: chain ends. Non-standard residues stand in square brackets, D forms with d. Residues, ends and D or L forms follow the SMILES beside them. *: point of attachment. FITC = O=C1OC2(c3ccc(O)cc3Oc3cc(O)ccc32)c2ccc(NC(=S)*)cc21; S5 = C=CCCC[C@](C)(N)C(=O)O; AEEA = NCCOCCOCC(=O)O

Tests used:
[1] = target: proteinase K (Parengyodontium album, UniProt P06873); assay: Protease stability assay; assay type: in vitro ADME; details: proteinase K 10 μg·ml^−1, fluorescein-labeled peptide 50 μM, 10 mM Tris pH 8.0, 150 mM NaCl, room temperature, HPLC absorbance 210 nm, exponential decay fit
Description: Protease stability assays were performed in analogy to a previously published protocol ([47]). Stocks of fluorescein-labeled peptides were prepared to a concentration of 55.5 μM in assay buffer (10 mM Tris, pH 8.0, 150 mM NaCl) and separately stocks of proteinase K also in assay buffer (c = 100 μg·ml^−1). To begin each experiment, peptide and proteinase K stocks were mixed (final concentrations: c = 10 μg·ml^−1 proteinase K, c = 50 μM fluorescein-labeled peptide; final volume = 500 μl) and incubated at room temperature. At each time point, 50 μl of the reaction mixture was quenched by adding 100 μl of TFA/ACN/H2O (v/v/v, 1:49:49) and subsequently incubated for 2 min on ice. Following centrifugation (15 min, 13200 rpm, 4°C), samples (45 μl) were monitored by analytical HPLC using a linear gradient of 10–60% HPLC solvent B over 20 min. The amount of remaining peptide was quantified via absorbance at λ = 210 nm (intact peptide (%)) and plotted against time (t) (h). Half-life (t1/2) was calculated by fitting the data to an exponential decay using the software Prism 5.0 (GraphPad).

[2] = CD spectroscopy, secondary structure content; assay type: physicochemical; details: fluorescein-labeled peptide 75 μM, 10 mM sodium phosphate pH 7.4, CDNN/PEPFIT; for Helix (α-helicity): unbound
Description: Spectra of fluorescein-labeled peptides were recorded with a J-715 circular dichroism spectrometer (Jasco) using a stoppered quartz cuvette (1 mm; Hellma). Peptide samples (c = 75 μM) were prepared in buffer: 10 mM disodium hydrogen phosphate, pH 7.4. For each sample, 10 CD spectra were measured between λ = 190 and 260 nm with continuous scan mode (10 mdeg sensitivity, 1.0 nm resolution, 1.0 nm bandwidth, 2 s integration time, 50 nm/min scan rate). Obtained spectra were averaged, then subtracted from a reference buffer spectrum and smoothed using a fast Fourier transform filter (FFT filter). The mean residue ellipticity (Θ) (deg·cm^2·dmol^−1·10^4) was calculated using Formula (2) and plotted against wavelength (λ) (nm). The ratio of secondary structure elements was calculated with CDNN using the PEPFIT set of reference spectra for secondary structure determination ([45],[46]):(2) where [Θ]m = mean molar ellipticity per peptide bond (degree·cm^2·dmol^−1·10^4), Θ = measured ellipticity (degree), d = optical path length (cm), cg = mass concentration (g·l^−1), MRW = mean residue weight, M = molar mass of the peptide (g·mol^−1) and N = number of peptide bonds.

Chain of proteinase K (P06873 106-384): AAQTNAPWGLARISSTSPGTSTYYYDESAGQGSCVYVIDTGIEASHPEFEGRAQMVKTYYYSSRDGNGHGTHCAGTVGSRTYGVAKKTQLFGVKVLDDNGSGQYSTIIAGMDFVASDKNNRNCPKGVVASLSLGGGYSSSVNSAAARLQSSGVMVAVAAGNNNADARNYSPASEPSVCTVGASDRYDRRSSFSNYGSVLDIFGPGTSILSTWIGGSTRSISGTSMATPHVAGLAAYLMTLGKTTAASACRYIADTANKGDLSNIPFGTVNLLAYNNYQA

| Compound | Half-life (t1/2) [1] [min] | Random coil [2] [%] | β-Sheet [2] [%] | β-Turn [2] [%] | Helix (α-helicity) [2] [%] |
| --- | --- | --- | --- | --- | --- |
| CC(C)C[C@H](NC(=O)[C@H](CCCCN)NC(=O)[C@H](Cc1c[nH]cn1)NC(=O)[C@H](CCCNC(=N)N)NC(=O)[C@H](CCCCN)NC(=O)[C@H](CCCNC(=N)N)NC(=O)[C@H](CCC(N)=O)NC(=O)[C@H](C)NC(=O)[C@H](CCC(N)=O)NC(=O)[C@H](CCCCN)NC(=O)[C@H](CCCCN)NC(=O)COCCOCCNC(=S)Nc1ccc2c(c1)C(=O)OC21c2ccc(O)cc2Oc2cc(O)ccc21)C(=O)N[C@@H](CC(N)=O)C(=O)N[C@@H](CCCNC(=N)N)C(=O)N[C@@H](CCCCN)C(=O)N[C@@H](CCC(=O)O)C(=O)N[C@@H](CCCNC(=N)N)C(=O)NCC(=O)N[C@@H](Cc1c[nH]cn1)C(=O)N[C@@H](CCCCN)C(=O)N[C@@H](CO)C(=O)N1CCC[C@H]1C(=O)N[C@@H](CO)C(=O)N[C@@H](CCC(=O)O)C(=O)N[C@@]1(C)CCCC=CCCC[C@@](C)(C(=O)N[C@@H](CC(C)C)C(=O)N[C@@H](Cc2c[nH]c3ccccc23)C(=O)N[C@@H](Cc2c[nH]cn2)C(=O)N[C@@H](C)C(=O)N[C@@H](CCCNC(=N)N)C(N)=O)NC(=O)[C@H](CO)NC(=O)[C@H](CCCNC(=N)N)NC(=O)[C@H](CCCNC(=N)N)NC1=O [B] ({FITC-AEEA}-KKQAQRKRHKLNRKERGHKSPSE[S5]RRS[S5]LWHAR-NH2; staple 24-28) | 64.9 | 46.0 | 6.8 | 13.9 | 30.5 |
| CC(C)C[C@H](NC(=O)[C@H](CCCCN)NC(=O)[C@H](Cc1c[nH]cn1)NC(=O)[C@H](CCCNC(=N)N)NC(=O)[C@H](CCCCN)NC(=O)[C@H](CCCNC(=N)N)NC(=O)[C@H](CCC(N)=O)NC(=O)[C@H](C)NC(=O)[C@H](CCC(N)=O)NC(=O)[C@H](CCCCN)NC(=O)[C@H](CCCCN)NC(=O)COCCOCCNC(=S)Nc1ccc2c(c1)C(=O)OC21c2ccc(O)cc2Oc2cc(O)ccc21)C(=O)N[C@@H](CC(N)=O)C(=O)N[C@@H](CCCNC(=N)N)C(=O)N[C@@H](CCCCN)C(=O)N[C@@H](CCC(=O)O)C(=O)N[C@@H](CCCNC(=N)N)C(=O)NCC(=O)N[C@@H](Cc1c[nH]cn1)C(=O)N[C@@H](CCCCN)C(=O)N[C@@H](CO)C(=O)N1CCC[C@H]1C(=O)N[C@@H](CO)C(=O)N[C@@H](CCC(=O)O)C(=O)N[C@@H](CCC(N)=O)C(=O)N[C@@H](CCCNC(=N)N)C(=O)N[C@@H](CCCNC(=N)N)C(=O)N[C@@H](CO)C(=O)N[C@@]1(C)CCCC=CCCC[C@@](C)(C(=O)N[C@@H](CCCNC(=N)N)C(N)=O)NC(=O)[C@H](Cc2c[nH]cn2)NC(=O)[C@H](Cc2c[nH]c3ccccc23)NC(=O)[C@H](CC(C)C)NC1=O [C] ({FITC-AEEA}-KKQAQRKRHKLNRKERGHKSPSEQRRS[S5]LWH[S5]R-NH2; staple 28-32) | 77.7 | 63.6 | 2.8 | 7.6 | 28.4 |
| CC(C)C[C@@H]1NC(=O)[C@@](C)(NC(=O)[C@H](CO)NC(=O)[C@H](CCCNC(=N)N)NC(=O)[C@H](CCCNC(=N)N)NC(=O)[C@H](CCC(N)=O)NC(=O)[C@H](CCC(=O)O)NC(=O)[C@H](CO)NC(=O)[C@@H]2CCCN2C(=O)[C@H](CO)NC(=O)[C@H](CCCCN)NC(=O)[C@H](Cc2c[nH]cn2)NC(=O)CNC(=O)[C@H](CCCNC(=N)N)NC(=O)[C@]2(C)CCCC=CCCC[C@](C)(NC(=O)[C@H](CCCCN)NC(=O)[C@H](Cc3c[nH]cn3)NC(=O)[C@H](CCCNC(=N)N)NC(=O)[C@H](CCCCN)NC(=O)[C@H](CCCNC(=N)N)NC(=O)[C@H](CCC(N)=O)NC(=O)[C@H](C)NC(=O)[C@H](CCC(N)=O)NC(=O)[C@H](CCCCN)NC(=O)[C@H](CCCCN)NC(=O)COCCOCCNC(=S)Nc3ccc4c(c3)C(=O)OC43c4ccc(O)cc4Oc4cc(O)ccc43)C(=O)N[C@@H](CC(N)=O)C(=O)N[C@@H](CCCNC(=N)N)C(=O)N[C@@H](CCCCN)C(=O)N2)CCCC=CCCC[C@@](C)(C(=O)N[C@@H](CCCNC(=N)N)C(N)=O)NC(=O)[C@H](Cc2c[nH]cn2)NC(=O)[C@H](Cc2c[nH]c3ccccc23)NC1=O [C3] ({FITC-AEEA}-KKQAQRKRHK[S5]NRK[S5]RGHKSPSEQRRS[S5]LWH[S5]R-NH2; staple 11-15, 28-32) | 303 | 37.0 | 4.3 | 6.2 | 59.3 |
| CC(C)C[C@H](NC(=O)[C@]1(C)CCCC=CCCC[C@](C)(NC(=O)[C@H](CCC(=O)O)NC(=O)[C@H](CO)NC(=O)[C@@H]2CCCN2C(=O)[C@H](CO)NC(=O)[C@H](CCCCN)NC(=O)[C@H](Cc2c[nH]cn2)NC(=O)CNC(=O)[C@H](CCCNC(=N)N)NC(=O)[C@H](CCC(=O)O)NC(=O)[C@H](CCCCN)NC(=O)[C@H](CCCNC(=N)N)NC(=O)[C@H](CC(N)=O)NC(=O)[C@]2(C)CCCC=CCCC[C@](C)(NC(=O)[C@H](CCCNC(=N)N)NC(=O)[C@H](CCC(N)=O)NC(=O)[C@H](C)NC(=O)[C@H](CCC(N)=O)NC(=O)[C@H](CCCCN)NC(=O)[C@H](CCCCN)NC(=O)COCCOCCNC(=S)Nc3ccc4c(c3)C(=O)OC43c4ccc(O)cc4Oc4cc(O)ccc43)C(=O)N[C@@H](CCCNC(=N)N)C(=O)N[C@@H](Cc3c[nH]cn3)C(=O)N[C@@H](CCCCN)C(=O)N2)C(=O)N[C@@H](CCCNC(=N)N)C(=O)N[C@@H](CCCNC(=N)N)C(=O)N[C@@H](CO)C(=O)N1)C(=O)N[C@@H](Cc1c[nH]c2ccccc12)C(=O)N[C@@H](Cc1c[nH]cn1)C(=O)N[C@@H](C)C(=O)N[C@@H](CCCNC(=N)N)C(N)=O [B2] ({FITC-AEEA}-KKQAQR[S5]RHK[S5]NRKERGHKSPSE[S5]RRS[S5]LWHAR-NH2; staple 7-11, 24-28) | 536 | 12.5 | 2.4 | 10.3 | 82.2 |
| CC(C)C[C@@H]1NC(=O)[C@@](C)(NC(=O)[C@H](CO)NC(=O)[C@H](CCCNC(=N)N)NC(=O)[C@H](CCCNC(=N)N)NC(=O)[C@H](CCC(N)=O)NC(=O)[C@H](CCC(=O)O)NC(=O)[C@H](CO)NC(=O)[C@@H]2CCCN2C(=O)[C@H](CO)NC(=O)[C@H](CCCCN)NC(=O)[C@H](Cc2c[nH]cn2)NC(=O)CNC(=O)[C@H](CCCNC(=N)N)NC(=O)[C@H](CCC(=O)O)NC(=O)[C@H](CCCCN)NC(=O)[C@H](CCCNC(=N)N)NC(=O)[C@H](CC(N)=O)NC(=O)[C@]2(C)CCCC=CCCC[C@](C)(NC(=O)[C@H](CCCNC(=N)N)NC(=O)[C@H](CCC(N)=O)NC(=O)[C@H](C)NC(=O)[C@H](CCC(N)=O)NC(=O)[C@H](CCCCN)NC(=O)[C@H](CCCCN)NC(=O)COCCOCCNC(=S)Nc3ccc4c(c3)C(=O)OC43c4ccc(O)cc4Oc4cc(O)ccc43)C(=O)N[C@@H](CCCNC(=N)N)C(=O)N[C@@H](Cc3c[nH]cn3)C(=O)N[C@@H](CCCCN)C(=O)N2)CCCC=CCCC[C@@](C)(C(=O)N[C@@H](CCCNC(=N)N)C(N)=O)NC(=O)[C@H](Cc2c[nH]cn2)NC(=O)[C@H](Cc2c[nH]c3ccccc23)NC1=O [C2] ({FITC-AEEA}-KKQAQR[S5]RHK[S5]NRKERGHKSPSEQRRS[S5]LWH[S5]R-NH2; staple 7-11, 28-32) | 440 | 41.6 | 3.3 | 4.2 | 61.8 |
